# In patent US11286231B2, “Hydrogen-bonding compounds, compositions comprising the same, and methods of preparing and using the same” (Wake Forest University Health Sciences, priority 2016, dated 2022):
# What was measured:
# [1] = Rheometer tensile strength T′ (adhesive force) test of HyStem hydrogels; type: physicochemical; conditions: for increase in T′ when concentration is doubled: 0.25% to 0.50% to 1.0% w/v; for fold increase in tensile strength T′: 1.0% w/v solution; for tensile strength T′: n=3
# Experimental: To a 2 mL centrifuge tube, 200 μL of Heprasil® solution (1% w/v solution, thiolated HA component of HyStem kit), 200 μL of Gelin-S® solution (1% w/v, thiolated gelatin component of HyStem kit), 50 μL of Extralink® solution (2% w/v, polyethylene glycol diacrylate component of HyStem kit), and 50 μL of a modular catecholamine (C1.1) or amide […] solutions (0.25%-1.5% w/v, see Rheology section for specifics) were added and mixed by softly pipetting the solution up and down carefully to avoid creating bubbles. For control experiments the modular catecholamide or amine solutions were replaced with an equivalent volume of sterile deionized water. For rheology or cell culture studies, the reaction mixture was placed into wells of an appropriate size and exposed to UV radiation (˜222 nm) for 1-5 seconds.
# A Discovery HR-2 Rheometer (TA Instruments) with an 8 mm geometry was used to collect the tensile strength, T′, data. The test was designed to quantify the axial force (Pa) exerted by the hydrogel on the geometry as measured by the rheometer as the geometry is slowly raised over 2000 μm at 25° C. The absolute value of the axial force (Pa) was then taken to be the adhesive force or tensile strength T′ (Pa) assigned to the hydrogel. To ensure standard conditions across all experiments the geometry was lowered into the gels until a calibration force of 0.4N was observed. Following, a rheometer tensile strength test was applied to the hydrogels at each of the respective conditions containing varying concentrations (0% w/v, 0.25% w/v, 0.50% w/v, and 1.0% w/v) of modular amine compounds, C1.0-C1.2. This experiment was repeated in triplicate for each condition.
# While not wishing to be bound to any particular theory, our assumption here is that increased intermolecular interactions are occurring with the C1.2. In addition to the ortho-dihydroxyl groups offered by the catechol moiety, the amide moiety offers an extra hydrogen […] species, the carbonyl oxygen (C═O), for intermolecular interactions between the adjacent catecholamides. The catecholamides located on different HA chains or gelatin increase the ability for the hydrogel matrix to both interact with itself and other substrates through hydrogen bonding. Whereas the amine (C1.1) has a secondary carbon in the same position as the carbonyl functional group on the amide (C1.2), we postulate that the lack of this hydrogen bonding position yields a lower increase in G′ observed in hydrogel when comparing the two compounds. Again, to ensure standard conditions across all experiments, the geometry was lowered into the gels until a calibration force of 0.4N was detected. Following, a tensile strength test (25 μm/s, […], 25° C.) was applied to hydrogels containing varying concentrations (0%, 0.25%, […], and 1.0% w/v) of modular amine solutions, C1.1/C1.2. The reported values are the average T′ (Pa) values for n=3 runs at every condition and uncertainties were calculated from standard deviations between n=3 averaged T′ (Pa) for each condition. In FIG. 4, we report the following T′ (Pa) values for hydrogels containing C1.1: (1.10×10^2+/−2.91×10^1) Pa for Hystem® control, (2.90×10^2+/−1.23×10^2) Pa for Hystem®+0.25% w/v catecholamine, (4.25×10^2+/−1.01×10^2) Pa for Hystem® +0.50% w/v catecholamine, and (8.48×10^2+/−1.42×10^2) Pa for Hystem®+1.0% w/v catecholamine. […] In addition, we collected the following T′ values (Pa) for hydrogels containing C1.2: (1.09×10^2+3.64×10^1) Pa for Hystem® control, (3.33×10^2+/−6.16×10^1) Pa for Hystem®+0.25% w/v catecholamide, (4.12×10^2+/−6.39×10^1) Pa for Hystem®+0.50% w/v catecholamide, and (1.16×10^3+/−6.34×10^1) Pa for Hystem®+1.0% w/v catecholamide. […] Conclusively, we can say the increase in allotted tensile strength T′ (Pa) of the hydrogels when cross comparing compounds, C1.1 and C1.2, is due to the amide moiety having higher hydrogen bonding capacities.
# Caco-2 = assay: 3D Live/Dead assay with red vs green pixel analysis; type: cell-based; conditions: Caco-2, 3D, days 1, 4, 7; 1% w/v compound solution
# Experimental: (§1) 3.0×10^6 HepG2 and Caco-2 cells were harvested from the tissue culture dishes, respectively. Following, they were centrifuged into cell pellets and the supernatant was discarded. For each cell line, HepG2 and Caco2, three conditions were prepared, i.e., a positive control (HyStem®) and two experimental conditions (HyStem®+C1.1 and HyStem®+C1.2). To prepare each condition, a 3.0×10^6 cell pellet was suspended in 500 μL 1% w/v Heprasil®, 500 μL 1% w/v Gelatin-S®, 125 μL of 2% w/v Extralink®, and 125 μL of 1% w/v C1.1/C1.2 (experimental conditions) or 125 μL of sterile, deionized water (positive control). The final cell density for each condition was […]. One 50 μL sample of each hydrogel condition at each condition was aliquoted into a 96-well for each time point (1, 4, and 7 days). […] At each time point media was aspirated from the wells and were subsequently incubated for 45-60 min with 200 μL of DPBS containing […] of calcein AM and […] of ethidium homodimer. Live cells fluoresce green due to the uptake and hydrolysis of calcein AM, and the nuclei of dead cells are labelled by the red-fluorescent ethidium homodimer.
# (§2) A MATLAB (MathWorks®) script (supplemental information, S.3) was used to quantify red and green fluorescent signals generated by biochemical interactions between the ethidium homodimer and calcein AM, and cells, respectively.
# (§3) Quantification of the red (dead) and green (viable) pixels was performed using an image processing script written on MATLAB (S.3). In this case, the live cell staining corresponds with the cytoplasm of the cell while the dead stain only highlights the nuclei of the cell therefore we use the ratio of red to green pixels as a quantification to show the relative cell-viability rather than report individual Live/Dead cell quantification over time.
# HepG2 = assay: as above; type: cell-based; conditions: HepG2, 3D, days 1, 4, 7; 1% w/v compound solution
# Experimental: as §1, §2, §3
# [2] = Hystem + 0.25% w/v compound solution
# [3] = Hystem + 0.50% w/v compound solution
# [4] = Hystem + 1.0% w/v compound solution
Structure (SMILES),increase in T′ when concentration is doubled [1] [%],fold increase in tensile strength T′ [1],"tensile strength T′ [1, 2]","increase in T′, 0.50% w/v to 1.0% w/v ([1]; Hystem + 0.50% w/v compared to Hystem + 1.0% w/v)","tensile strength T′ [1, 3]","tensile strength T′ [1, 4]",biocompatibility / cell viability in hydrogel (Live/Dead) (Caco-2),biocompatibility / cell viability in hydrogel (Live/Dead) (HepG2)
C#CCNCc1ccc(O)c(O)c1 [Compound C1.1],~100,approximately 4 fold,2.90×10^2+/−1.23×10^2 Pa,4.13×10^2+/−1.56×10^1 Pa,4.25×10^2+/−1.01×10^2 Pa,8.48×10^2+/−1.42×10^2 Pa,only a slightly depressed biocompatibility,only a slightly depressed biocompatibility
C#CCNC(=O)Cc1ccc(O)c(O)c1 [Compound C1.2],200,~6 fold,3.33×10^2+/−6.16×10^1 Pa,–,4.12×10^2+/−6.39×10^1 Pa,1.16×10^3+/−6.34×10^1 Pa,only a slightly depressed biocompatibility,only a slightly depressed biocompatibility
